{
  "source": "paper PMC7113753",
  "about": "(Antiviral Research, 2018)",
  "key": {"PEDV PL2^pro [1]": {"target": "T1, PEDV PL2^pro (Porcine epidemic diarrhea virus, UniProt V5W8W2)", "assay": "biochemical", "format": "biochemical"}, "human USP2": {"tested_on": "human USP2", "settings": "cited from earlier work"}, "PEDV PL2^pro [2]": {"target": "T1, PEDV PL2^pro", "format": "biochemical"}},
  "note": "“Also recorded” adds a separate entry of the source. Where two headings read alike, the source gives them in different places.",
  "data": [
    {"compound": "Nc1nc2nc[nH]c2c(=S)[nH]1", "note": "[6TG, 6-thioguanine]", "values": [
      {"measurement": "IC50 of 6TG fold lower than that of 6MP", "setting": "PEDV PL2^pro [1]", "result": 4.2, "unit": "fold"},
      {"measurement": "pattern of inhibition", "setting": "human USP2", "result": "noncompetitive inhibitory effect"},
      {"measurement": "pattern of inhibition", "setting": "PEDV PL2^pro [2]", "result": "noncompetitive inhibitor; also recorded: noncompetitive pattern of inhibition"}
    ]},
    {"compound": "CCN(CC)C(=S)SSC(=S)N(CC)CC", "note": "[Disulfiram]", "values": [
      {"measurement": "IC50", "setting": "PEDV PL2^pro [1]", "result": "> 100", "unit": "µM"}
    ]},
    {"compound": "Cc1ccc(N)cc1C(=O)N[C@H](C)c1cccc2ccccc12", "note": "[GRL0617]", "values": [
      {"measurement": "IC50", "setting": "PEDV PL2^pro [1]; read-out: IC50 (DUB activity), pH 6.5", "result": "> 100", "unit": "µM"}
    ]},
    {"compound": "Sc1ncnc2nc[nH]c12", "note": "[6MP, 6-mercaptopurine]", "values": [
      {"measurement": "IC50", "setting": "PEDV PL2^pro [1]", "result": "58.1 ± 5.7", "unit": "µM"}
    ]},
    {"compound": "zinc ions", "values": [
      {"measurement": "inhibition of DUB activity by external zinc ions (in words)", "setting": "PEDV PL2^pro [1]", "result": "can be inhibited"}
    ]},
    {"compound": "O=c1[nH]cnc2nc[nH]c12", "note": "[Hypoxanthine]", "values": [
      {"measurement": "IC50", "setting": "PEDV PL2^pro [1]", "result": "> 200", "unit": "µM"},
      {"measurement": "inhibitory activity (in words)", "setting": "PEDV PL2^pro [1]", "result": "devoid of inhibitory activity"}
    ]},
    {"compound": "COc1c(C)c2c(c(O)c1C/C=C(\\C)CCC(=O)O)C(=O)OC2", "note": "[Mycophenolic acid]", "values": [
      {"measurement": "IC50", "setting": "PEDV PL2^pro [1]", "result": "> 200", "unit": "µM"}
    ]},
    {"compound": "O=C(O)CN(CCN(CC(=O)O)CC(=O)O)CC(=O)O", "note": "[EDTA]", "values": [
      {"measurement": "inhibition of DUB activity by EDTA (in words)", "setting": "PEDV PL2^pro [1]", "result": "dose-dependent pattern"}
    ]}
  ]
}
